Experimental data: patent publication US9700525B2, “Continuous local slow-release of therapeutics for head and neck problems and upper aerodigestive disorders” (Board of Supervisors of Louisiana State University and …, priority 2008, dated 2017)

Experiments:
SCC40 xenografts = assay: Akt/mTOR pathway markers in SCC40 xenografts of treated mice; format: in vivo; conditions: mice with SCC40 xenografts treated with curcumin
[1] = tested on: prostate cancer xenograft; conditions: p.o. gavage 5 mg/day, 5 days/week for 4 weeks; cited from earlier work
DMBA-induced oral tumors = conditions: 10 μmol topically 3 times/week for 24 weeks; cited from earlier work
HNSCC cell lines = assay: Inhibition of cell proliferation in HNSCC cell lines; format: cell-based
Source text: While curcumin can be used to treat these cancers, other compounds that act on these pathways may also be useful in treating these cancers and it should be readily recognized that such compounds could also be delivered by including in the formulations described herein.

[2] = tested on: normal fibroblast cell line CCL110; assay: Effect on proliferation of normal fibroblast cell line; format: cell-based
[3] = following oral administration; cited from earlier work
[4] = tested on: NFκB and Akt/mTOR pathways; assay: Modulation of NFκB and Akt/mTOR pathways in cell lines (western blot); format: cell-based
TPA-induced tumors = conditions: topical application of 10 μmol twice weekly; cited from earlier work
tumor cells = assay: Chemoprevention model: pre-treatment before tumor cell injection, tumor volumes; format: in vivo, Balb/c nu/nu mice; conditions: pre-treated 4 days prior to injecting tumor cells
Method: Balb/c nu/nu mice were randomized into treatment groups. […] Tumors were measured over approximately three weeks. […] ANOVA analysis. […] This also points to its role as a chemopreventive agent rather than a therapeutic agent.

Akt/mTOR pathway = assay: Model of minimal residual disease; format: in vivo
mTOR pathway markers = conditions: tumors and PBMCs of HNSCC patients; cited from earlier work

COc1cc(/C=C/C(=O)CC(=O)/C=C/c2ccc(O)c(OC)c2)ccc1O [curcumin]
change in pAkt (SCC40 xenografts): significant decrease
change in pS6 (SCC40 xenografts): significant decrease
inhibition of growth of prostate cancer xenograft [1]: ~50%
reduction of the number of DMBA-induced oral tumors (DMBA-induced oral tumors): ~40%
growth inhibitory effect (HNSCC cell lines; all 10 HNSCC cell lines tested to date): growth inhibitory effects
growth inhibitory effect (HNSCC cell lines; three HNSCC cell lines, 10 μM, 48 hours): significant growth inhibitory effects
concentration giving consistent inhibition of cell proliferation (HNSCC cell lines; variety of HNSCC cell lines, in vitro): less than 10 μM
dose required to see effects [2]: 20 to 40 µM
bioavailability [3]: low bioavailability
change in pNFκB ([4]; PCI15a cells, 10 μM, 24 and 48 hours): no change
change in pAkt ([4]; PCI15a cells, 10 μM, 48 hours): down-regulated
change in pS6 downstream of mTOR ([4]; PCI15a cells, 10 μM, 48 hours): down-regulated
change in the Akt/mTOR pathway ([4]; SCC40 cells, 10 μM): no change
change in pNFκB ([4]; SCC40 cells, 10 μM, 48 hours): down-regulation
modulation of the Akt/mTOR pathway ([4]; SCC066 cells, 10 μM): did not show any modulation
change in pNFκB or Akt/mTOR ([4]; normal fibroblast cell line CCL110, 10 μM): no decrease
inhibition of the number of tumors per mouse (TPA-induced tumors): 98%
difference in tumor volumes vs control (vehicle treated) (tumor cells; 10 mg): no significant difference
difference in tumor volumes vs control (vehicle treated) (tumor cells; 15 mg, about three weeks): statistically significant difference

CO[C@H]1C[C@@H]2CC[C@@H](C)[C@@](O)(O2)C(=O)C(=O)N2CCCC[C@H]2C(=O)O[C@H]([C@H](C)C[C@@H]2CC[C@@H](OC(=O)C(C)(CO)CO)[C@H](OC)C2)CC(=O)[C@H](C)/C=C(\C)[C@@H](O)[C@@H](OC)C(=O)[C@H](C)C[C@H](C)/C=C/C=C/C=C/1C [CCI-779, temsirolimus]
survival (Akt/mTOR pathway): improve survival
tumor formation (Akt/mTOR pathway): inhibit tumor formation
modulation of mTOR pathway markers (mTOR pathway markers): modulation of these markers
